“And” between values parts separate entries of the source, which are not always exact repeats. Identical values can stand only once.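 1) Cells in 96-well plates. 2) Compound, 48 h, 5 concentrations. 3) Linear interpolation between surrounding doses. 4) Unreached endpoint = highest concentration. The concentration for 50% growth inhibition is given as GI50. TGI marks complete inhibition of growth.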

This passage reports GI50 and TGI results from PubChem BioAssay (NCI).

Holding throughout (experiment): inhibition of tumour cell growth, NCI panel, 48 h
For test [1], the system named is MCF7 breast.
The test system of test [2] is MDA-MB-435.
Test [3] relates to PC-3 prostate.
Test [4] has as its system MDA-N.

Consider `Cc1cc(O)cc(C)c1/C=C/c1cncc(C(=O)N(C)C)c1`, for which the GI50 in test [1], in test [2] and in test [3] was > 25 µM throughout. Also, the TGI in test [1], in test [2] and in test [3] was > 25 µM throughout.

Take `CCCCc1cc(O)ccc1O`: the GI50 was 40.4 µM in test [1], 22 µM in test [2] and 10.5 µM in test [3]. Besides, the TGI was > 100 µM in test [1], 62.1 µM in test [2] and > 100 µM in test [3].

Consider `O=[N+]([O-])/C=C\c1ccc2c(c1)OCO2`, for which the GI50 in test [1] is 1.99 µM; in test [2], 2.16 µM; in test [3], 2.62 µM. Besides, the figures for the TGI in test [1] and in test [3] were 10.4 µM and 7.34 µM, respectively.

Take `ClCCn1cnc2c(SCc3ccccc3)ncnc21`: the values for the GI50 in test [1], in test [2] and in test [3] were 1.65 µM, 3.47 µM and 0.356 µM, respectively. Also, the TGI in test [1], in test [2] and in test [3] was > 100 µM throughout.

As to `O=C(O)C(Cc1ccc(O)c([N+](=O)[O-])c1)N1C(=O)c2ccccc2C1=O` (stereo unspecified), the TGI in test [1], in test [2], in test [4] and in test [3] was > 100 µM in each case.

Take `CN(C)CN1C(=O)S/C(=C2\C(=O)N(CN(C)C)c3ccccc32)C1=O`: the TGI in test [1], in test [2] and in test [3] was > 100 µM throughout.

For `O=C(O)c1nnsc1COCc1ccccc1`, the TGI in test [1], in test [2], in test [4] and in test [3] was > 100 µM each time.

`CC/C=C\C[C@H](O)C/C=C1/C(=O)C=C[C@@H]1C/C=C\CCCC(N)=O`: the values for the GI50 in test [1], in test [2] and in test [3] were 0.626 µM, 1.72 µM and 2.15 µM, respectively. The figures for the TGI in test [1], in test [2] and in test [3] were 11.7 µM, 5.24 µM and 5.36 µM, respectively.

Consider `O=C(N/N=C/c1ccc(F)cc1)c1[nH]c2ccc(I)cc2c1-c1ccccc1`, for which the results for the GI50 in test [1], in test [2] and in test [3] were 0.339 µM, 0.162 µM and 0.541 µM, respectively. The values for the TGI in test [1], in test [2] and in test [3] were 18.6 µM, 0.348 µM and > 86.4 µM, respectively.

On to `NC(N)=NNC(=O)C(=O)O`, for which the TGI in test [1], in test [2], in test [4] and in test [3] was > 100 µM each time.

For the molecule `CCOC(=O)/C=C/c1ccc(C(=O)OCC)[nH]1`, the GI50 in test [1] was 3.06 µM; in test [2], 0.393 µM; in test [3] it was 4.7 µM. Also, the TGI in test [1] is > 100 µM; in test [2], 2.29 µM; in test [3], > 100 µM.

As for `NC(N)=N/N=C/c1c(-c2cc(Cl)sc2Cl)nc2n1CCS2`, the figures for the GI50 in test [1], in test [2] and in test [3] were 10.6 µM, 11.1 µM and 8.2 µM, respectively. The TGI came to 25.3 µM in test [1], 19.7 µM in test [2] and 15.2 µM in test [3].

Turning to `CC1(C)C(=O)/C(=C\c2ccco2)C[C@]2(C)[C@H]3CC=C4[C@@H]5C[C@](C)(C(=O)O)CC[C@]5(C)CC[C@@]4(C)[C@]3(C)CC[C@@H]12`, the GI50 in test [1] is 5.42 µM; in test [2], 12.1 µM; in test [3] it was 3.93 µM. The TGI in test [1] turned out to be 26.2 µM; in test [2], 30.3 µM; in test [3], 23.1 µM.

Take `O=Nc1c2cccnc2n2nnc3ccc(Cl)cc3c12`: the GI50 is 0.792 µM in test [1], 2.65 µM in test [2] and 1.09 µM in test [3]. The TGI in test [1] came to 3.39 µM; in test [2], 7.99 µM; in test [3], 7.98 µM.

As for `Nc1ncnc2c1ncn2C1OC(C(=O)O)C(O)C1O` (stereo unspecified), the TGI in test [1], in test [2], in test [4] and in test [3] was > 100 µM in each case.

Consider `O=C1/C(=C\c2cccs2)Oc2ccccc21`, for which the TGI in test [1], in test [2], in test [4] and in test [3] was > 100 µM in each case.

Turning to `O=C1OCC2=Nc3cccc4cccc(c34)N12`, the TGI in test [1], in test [2] and in test [3] was > 100 µM in each case.

As to `CCOC(=O)/C(C1=CC(=O)C(=O)c2ccccc21)=C(/C)NCc1ccccc1`, the GI50 in test [1] is 2.05 µM; in test [2], 0.226 µM; in test [3], 1.23 µM. The TGI in test [1] was 4.75 µM; in test [2], 0.476 µM; in test [3], 2.48 µM.

Take `O=C(/C=C/c1ccc([N+](=O)[O-])o1)NNC(=O)c1cc2ccccc2cc1O`: the values for the GI50 in test [1], in test [2] and in test [3] were 0.824 µM, 0.644 µM and 3.36 µM, respectively. In addition, the TGI in test [1] and in test [3] was > 100 µM in each case.

Turning to `O=C1Cc2c(-c3ccccc3)cc(-c3cccc(Cl)c3)nc2-c2ccccc2N1`, the TGI is > 22.6 µM in test [1], > 59.9 µM in test [2], 31.6 µM in test [4] and 23.2 µM in test [3].

For the molecule `Cc1ccc(N2C(=O)C(Cl)=C(Nc3cccc(O)c3)C2=O)cc1Cl`, the GI50 was 6.16 µM in test [1], 16.6 µM in test [2] and 12.5 µM in test [3]. Also, the TGI in test [1] was 32 µM; in test [2], 34 µM; in test [3], 30.9 µM.

For the molecule `C=C(CNCCO)[C@@H]1CC[C@]2(CO)CC[C@]3(C)[C@H](CC[C@@H]4[C@@]5(C)CCC(NCCc6ccc(O)cc6)C(C)(C)[C@@H]5CC[C@]43C)[C@@H]12` (stereo partly specified), the GI50 in test [1] was 0.339 µM; in test [2], 1.51 µM; in test [3] it was 1.38 µM. In addition, the TGI is 1.48 µM in test [1], 2.9 µM in test [2] and 3.07 µM in test [3].

Regarding `OC1CCC(C2C3CCCCC3C3CCCCC3C2C2CCC(O)CC2)CC1` (stereo unspecified), the TGI in test [1] is 34.3 µM; in test [2], 24.6 µM; in test [3], > 100 µM.

As for `CCC(=O)N1C/C(=C/c2ccc(OC)cc2)C(=O)/C(=C/c2ccc(OC)cc2)C1`, the GI50 was 0.498 µM in test [1], 1.23 µM in test [2] and 2.17 µM in test [3]. Besides, the TGI is 12.2 µM in test [1], 4.42 µM in test [2] and 7.94 µM in test [3].

As for `N#CC1C(N)=NNC1c1ccc(-c2ccc(-c3nc4ccccc4o3)cc2)o1` (stereo unspecified), in test [2], the GI50 was 36.4 µM and the TGI was > 100 µM. In test [3], the GI50 was 40.3 µM and the TGI is > 100 µM.

On to `OC1CCC(Oc2cccc3cnc(Nc4ccc5nc[nH]c5c4)nc23)CC1` (stereo unspecified), for which the GI50 in test [1] was 0.217 µM; in test [2], 0.612 µM; in test [3], 0.254 µM. Besides, the TGI was found to be 3.1 µM in test [1], 12.1 µM in test [2] and 20.7 µM in test [3].

`Cc1ccc(S(=O)(=O)NCCN2c3nc4ccccc4cc3Sc3cc4ccccc4nc32)cc1`: in test [1], the GI50 was > 100 µM and the TGI was > 100 µM. In addition, in test [2], the GI50 was > 100 µM and the TGI is > 100 µM.

For `C=C1C(=O)O[C@H]2[C@H]1CC/C(COC(=O)c1ccc(C(=O)O)s1)=C\CC[C@@]1(C)O[C@@H]21`, in test [2], the GI50 is 1.92 µM and the TGI amounted to 4 µM. Also, in test [3], the GI50 is 2.9 µM and the TGI worked out at 11.4 µM.

As for `O=c1c(OC/C(=N/O)c2ccccc2)c(-c2ccccc2)oc2ccccc12`, in test [2], the GI50 is 10.9 µM and the TGI stood at 28 µM. For the same molecule, in test [3], the GI50 was 8.64 µM and the TGI was 18 µM.

On to `CCN(CC)CC(C)Nc1ccc(C)c2sc3ccccc3c(=O)c12` (stereo unspecified), for which the GI50 is 2.1 µM in test [1], 3.37 µM in test [2] and 3.6 µM in test [3]. The results for the TGI in test [1], in test [2] and in test [3] were 6.96 µM, 11.9 µM and 16.6 µM, respectively.

For the molecule `COc1cccc2c(=O)c3c(sc12)c(NCCCN)nc1ccccc13`, the results for the GI50 in test [2] and in test [3] were 1.8 µM and 1.58 µM, respectively. Besides, the TGI is 3.34 µM in test [2] and 3.14 µM in test [3].

Consider `Cn1cnc([N+](=O)[O-])c1Sc1ncnc2nc[nH]c12`, for which the GI50 in test [1] was 2.92 µM and 3.69 µM; in test [2] it was 2.68 µM and 4.37 µM; in test [3] it was 25.6 µM and 45.9 µM. For the same molecule, the TGI in test [1], in test [2] and in test [3] was > 100 µM each time.

On to `COC(=O)c1ccc2c(c1)c1c(C)c3cnccc3c(C)c1n2C`, for which the GI50 was 0.109 µM in test [1], 0.0585 µM in test [2] and 0.0579 µM in test [3]. Also, the figures for the TGI in test [1], in test [2] and in test [3] were 0.511 µM, 1.09 µM and 4.06 µM, respectively.

For `CCN(CC)C(=S)SSC1CCCCC1`, the GI50 in test [1] is 14.4 µM; in test [2] it was 15 µM; in test [3], 17.8 µM. Further, the TGI in test [1] was determined as 30.4 µM; in test [2], 33.1 µM; in test [3] it was 42.6 µM.
